Results on 26 compounds are retold here after US9540392B2, “Thienopyrimidines” (BAYER PHARMA AKTIENGESELLSCHAFT, priority 2012, dated 2017).

The structures appear in SMILES notation.

The target in this assay is T1, human full-length MKNK1 (Homo sapiens, UniProt Q9BUB5, T385D).
T1 construct: GST (N); purchased Carna Biosciences 02-145; host or cells: insect cells (baculovirus expression system)
T1 sequence (Q9BUB5 1-424 isoform Q9BUB5-2 T344D): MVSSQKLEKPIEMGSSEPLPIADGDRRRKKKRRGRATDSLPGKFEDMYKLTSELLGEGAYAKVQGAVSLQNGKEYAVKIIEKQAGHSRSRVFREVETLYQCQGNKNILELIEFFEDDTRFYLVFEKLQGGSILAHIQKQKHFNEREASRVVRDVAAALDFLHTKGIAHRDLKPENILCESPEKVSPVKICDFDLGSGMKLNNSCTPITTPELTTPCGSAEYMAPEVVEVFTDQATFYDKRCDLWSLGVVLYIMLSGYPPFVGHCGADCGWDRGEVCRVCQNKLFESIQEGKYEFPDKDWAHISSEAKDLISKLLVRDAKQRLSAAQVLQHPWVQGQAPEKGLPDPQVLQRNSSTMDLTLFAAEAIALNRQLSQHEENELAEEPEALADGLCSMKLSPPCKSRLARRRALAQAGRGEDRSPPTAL
The experiment in a line: MKNK1 kinase high ATP assay (TR-FRET). The class given is biochemical. The note with it: 2 mM ATP, after preincubation with MKNK1; read-out: MKNK1 IC50 (MKNK1 high ATP). Summed up:
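Compound was preincubated 15 min at 22° C. with MKNK1 in 50 mM HEPES pH 7.5, 5 mM MgCl2, 1.0 mM DTT, then the reaction ran 30 min at 22° C. with 2 mM ATP and 0.06 μM biotinylated peptide (final).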
Take `CCOc1cc2[nH]ncc2cc1Nc1ncnc2sc3c(c12)CCC(C(=O)N1CCCC(C#N)C1)C3` (racemic) [Example 241, (RS)-1-({4-[(6-Ethoxy-1H-indazol-5-yl)amino]-5,6,7,8-tetrahydro[1]benzothieno[2,3-d]pyrimidin-7-yl}carbonyl)piperidine-3-carbonitrile]: the IC50 was 0.4 nM. In the case of `CCOc1cc2[nH]ncc2cc1Nc1ncnc2sc3c(c12)CCC(C(=O)N(CC)CCC#N)C3` (racemic) [Example 242, (RS)—N-(2-Cyanoethyl)-4-[(6-ethoxy-1H-indazol-5-yl)amino]-N-ethyl-5,6,7,8-tetrahydro[1]benzothieno[2,3-d]pyrimidine-7-carboxamide], the IC50 came to 0.3 nM. As for `CCOc1cc2[nH]ncc2cc1Nc1ncnc2sc3c(c12)CCC(C(=O)N(C)CCOC)C3` (racemic) [Example 245, (RS)-4-[(6-Ethoxy-1H-indazol-5-yl)amino]-N-(2-methoxyethyl)-N-methyl-5,6,7,8-tetrahydro[1]benzothieno[2,3-d]pyrimidine-7-carboxamide], the figure is 0.7 nM; as for `CCOc1cc2[nH]ncc2cc1Nc1ncnc2sc3c(c12)CCC(C(=O)N1CCN(CC2CC2)CC1)C3` (racemic) [Example 247, (RS)-[4-(Cyclopropylmethyl)piperazin-1-yl]{4-[(6-ethoxy-1H-indazol-5-yl)amino]-5,6,7,8-tetrahydro[1]benzothieno[2,3-d]pyrimidin-7-yl}methanone], 0.3 nM. The result for `CN(C)C(=O)C1CCc2c(sc3ncnc(Nc4cc5cn[nH]c5cc4OC(F)(F)F)c23)C1` (racemic) [Example 249, (RS)—N,N-Dimethyl-4-{[6-(trifluoromethoxy)-1H-indazol-5-yl]amino}-5,6,7,8-tetrahydro[1]benzothieno[2,3-d]pyrimidine-7-carboxamide] reads 15 nM; that for `COc1cc2[nH]ncc2cc1Nc1ncnc2sc3c(c12)CCC(C(=O)N1CC2(COC2)C1)C3` (racemic) [Example 250, (RS)-{4-[(6-Methoxy-1H-indazol-5-yl)amino]-5,6,7,8-tetrahydro[1]benzothieno[2,3-d]pyrimidin-7-yl}(2-oxa-6-azaspiro[3.3]hept-6-yl)methanone], 0.5 nM. For `CN(C)C(=O)C1CCc2c(sc3ncnc(Nc4cc5cn[nH]c5cc4N(C)C)c23)C1` (racemic) [Example 251, (RS)-4-{[6-(Dimethylamino)-1H-indazol-5-yl]amino}-N,N-dimethyl-5,6,7,8-tetrahydro[1]benzothieno[2,3-d]pyrimidine-7-carboxamide], the 50% inhibitory concentration (IC50) is 0.2 nM. With `CCOc1cc2[nH]ncc2cc1Nc1ncnc2sc3c(c12)CCC(C(=O)N(CCOC)CCOC)C3` (racemic) [Example 252, (RS)-4-[(6-Ethoxy-1H-indazol-5-yl)amino]-N,N-bis(2-methoxyethyl)-5,6,7,8-tetrahydro[1]benzothieno[2,3-d]pyrimidine-7-carboxamide], the concentration for half-maximal inhibition (IC50) came out at 2.2 nM.

Take `CCCN(C)C(=O)C1CCc2c(sc3ncnc(Nc4cc5cn[nH]c5cc4OCC)c23)C1` (racemic) [Example 253, (RS)-4-[(6-Ethoxy-1H-indazol-5-yl)amino]-N-methyl-N-propyl-5,6,7,8-tetrahydro[1]benzothieno[2,3-d]pyrimidine-7-carboxamide]: the IC50 was found to be 1.2 nM. Consider `CCOc1cc2[nH]ncc2cc1Nc1ncnc2sc3c(c12)CCC(C(=O)N(C)C)C3` (racemic) [Example 254, (RS)-4-[(6-Ethoxy-1H-indazol-5-yl)amino]-N,N-dimethyl-5,6,7,8-tetrahydro[1]benzothieno[2,3-d]pyrimidine-7-carboxamide], for which the IC50 was 1.6 nM. Turning to `CCOc1cc2[nH]ncc2cc1Nc1ncnc2sc3c(c12)CCC(C(=O)N1CC=CC1)C3` (racemic) [Example 255, (RS)-2,5-Dihydro-1H-pyrrol-1-yl{4-[(6-ethoxy-1H-indazol-5-yl)amino]-5,6,7,8-tetrahydro[1]benzothieno[2,3-d]pyrimidin-7-yl}methanone], the IC50 was found to be 0.3 nM. In the case of `CCOc1cc2[nH]ncc2cc1Nc1ncnc2sc3c(c12)CCC(C(=O)N(C)CC(O)CO)C3` (racemic) [Example 257, (7RS)—N-[(2RS)-2,3-Dihydroxypropyl]-4-[(6-ethoxy-1H-indazol-5-yl)amino]-N-methyl-5,6,7,8-tetrahydro[1]benzothieno[2,3-d]pyrimidine-7-carboxamide], the IC50 came to 0.6 nM. As for `CCOc1cc2[nH]ncc2cc1Nc1ncnc2sc3c(c12)CCC(C(=O)N1CCC(N(C)C)C1)C3` (racemic) [Example 258, [(3RS)-3-(Dimethylamino)pyrrolidin-1-yl]{(7RS)-4-[(6-ethoxy-1H-indazol-5-yl)amino]-5,6,7,8-tetrahydro[1]benzothieno[2,3-d]pyrimidin-7-yl}methanone], the figure is 0.4 nM; as for `CC(C)Oc1cc2[nH]ncc2cc1Nc1ncnc2sc3c(c12)CCC(C(=O)N1CC2(CCO2)C1)C3` (racemic) [Example 259, (RS)-{4-[(6-Isopropoxy-1H-indazol-5-yl)amino]-5,6,7,8-tetrahydro[1]benzothieno[2,3-d]pyrimidin-7-yl}(1-oxa-6-azaspiro[3.3]hept-6-yl)methanone], 1.9 nM; as for `COc1cc2[nH]ncc2cc1Nc1ncnc2sc3c(c12)CCC(C(=O)N1CC2(CCO2)C1)C3` (racemic) [Example 260, (RS)-{4-[(6-Methoxy-1H-indazol-5-yl)amino]-5,6,7,8-tetrahydro[1]benzothieno[2,3-d]pyrimidin-7-yl}(1-oxa-6-azaspiro[3.3]hept-6-yl)methanone], 0.7 nM. Regarding `CC(C)Oc1cc2[nH]ncc2cc1Nc1ncnc2sc3c(c12)CCC(C(=O)N1CCC2(CC2)C1)C3` (racemic) [Example 261, (RS)-5-Azaspiro[2.4]hept-5-yl{4-[(6-isopropoxy-1H-indazol-5-yl)amino]-5,6,7,8-tetrahydro[1]benzothieno[2,3-d]pyrimidin-7-yl}methanone], the IC50 is 2.3 nM.

On to `CCOc1cc2[nH]ncc2cc1Nc1ncnc2sc3c(c12)CCC(C(=O)N1CC2(CCS2(=O)=O)C1)C3` (racemic) [Example 263, (RS)-(1,1-Dioxido-1-thia-6-azaspiro[3.3]hept-6-yl){4-[(6-ethoxy-1H-indazol-5-yl)amino]-5,6,7,8-tetrahydro[1]benzothieno[2,3-d]pyrimidin-7-yl}methanone], for which the half-maximal inhibitory concentration (IC50) stood at 3.3 nM. As for `COc1cc2[nH]ncc2cc1Nc1ncnc2sc3c(c12)CCC(C(=O)N1CC2(CCS2(=O)=O)C1)C3` (racemic) [Example 264, (RS)-(1,1-Dioxido-1-thia-6-azaspiro[3.3]hept-6-yl){4-[(6-methoxy-1H-indazol-5-yl)amino]-5,6,7,8-tetrahydro[1]benzothieno[2,3-d]pyrimidin-7-yl}methanone], the figure is 2.2 nM; as for `CCOc1cc2[nH]ncc2cc1Nc1ncnc2sc3c(c12)CCC(C(=O)N1CCC(C#N)C1)C3` (racemic) [Example 265, (3RS)-1-({(7RS)-4-[(6-Ethoxy-1H-indazol-5-yl)amino]-5,6,7,8-tetrahydro[1]benzothieno[2,3-d]pyrimidin-7-yl}carbonyl)pyrrolidine-3-carbonitrile], 1.2 nM; as for `CN(C)C(=O)C1CCc2c(sc3ncnc(Nc4cc5cn[nH]c5cc4OCCCl)c23)C1` (racemic) [Example 266, (RS)-4-{[6-(2-Chloroethoxy)-1H-indazol-5-yl]amino}-N,N-dimethyl-5,6,7,8-tetrahydro[1]benzothieno[2,3-d]pyrimidine-7-carboxamide], 1.2 nM. The result for `CN(C)C(=O)C1CCc2c(sc3ncnc(Nc4cc5cn[nH]c5cc4OCCCCl)c23)C1` (racemic) [Example 267, (RS)-4-{[6-(3-Chloropropoxy)-1H-indazol-5-yl]amino}-N,N-dimethyl-5,6,7,8-tetrahydro[1]benzothieno[2,3-d]pyrimidine-7-carboxamide] reads 2.2 nM. As for `CCOc1cc2[nH]ncc2cc1Nc1ncnc2sc3c(c12)CCC(C(=O)N(C)CCNC(=O)OC(C)(C)C)C3` (racemic) [Example 268, (RS)-tert-Butyl {2-[({4-[(6-ethoxy-1H-indazol-5-yl)amino]-5,6,7,8-tetrahydro[1]benzothieno[2,3-d]pyrimidin-7-yl}carbonyl)(methyl)amino]ethyl}carbamate], the figure is 0.4 nM; as for `CCCOc1cc2[nH]ncc2cc1Nc1ncnc2sc3c(c12)CCC(C(=O)N(C)C)C3` (racemic) [Example 269, (RS)—N,N-Dimethyl-4-[(6-propoxy-1H-indazol-5-yl)amino]-5,6,7,8-tetrahydro[1]benzothieno[2,3-d]pyrimidine-7-carboxamide], 2.7 nM.

As to `CCOc1cc2[nH]ncc2cc1Nc1ncnc2sc3c(c12)CCC(C(=O)N1CCN2CCCCC2C1)C3` (racemic) [Example 270, {(7RS)-4-[(6-Ethoxy-1H-indazol-5-yl)amino]-5,6,7,8-tetrahydro[1]benzothieno[2,3-d]pyrimidin-7-yl}[(9aRS)-octahydro-2H-pyrido[1,2-a]pyrazin-2-yl]methanone], the IC50 is 0.4 nM. For the compound `CCOc1cc2[nH]ncc2cc1Nc1ncnc2sc3c(c12)CCC(C(=O)N(C)CCN)C3` (racemic) [Example 271, (RS)-5-({7-[(2-Ammonioethyl)(methyl)carbamoyl]-5,6,7,8-tetrahydro[1]benzothieno[2,3-d]pyrimidin-4-yl}amino)-6-ethoxy-1H-indazol-1-ium bis(trifluoroacetate)], the IC50 was 0.4 nM. As for `COc1cc2[nH]ncc2cc1Nc1ncnc2sc3c(c12)CCC(C(=O)N1CC(O)C1)C3` (racemic) [Example 272, (RS)-(3-Hydroxyazetidin-1-yl){4-[(6-methoxy-1H-indazol-5-yl)amino]-5,6,7,8-tetrahydro[1]benzothieno[2,3-d]pyrimidin-7-yl}methanone], the figure is 0.6 nM.
